pIC50: −log10 of the molar value. Converted amounts (≈) assume the structure as drawn. Read-outs that look alike come from different tables or passages of the source.

Series [1] has as its target Mcl-1 protein (residues 171-323) (Homo sapiens (Human), UniProt Q07820). As to the kind of experiment: Inhibition of Mcl-1 by fluorescence polarization (FP) competitive binding assay with FAM-Bid tracer. Particulars: 2 nM FAM-Bid, 20 nM Mcl-1, 30 min, read-out: Mc1-1 (FP). The method in brief:
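Competitive FP binding of compounds against FAM-Bid tracer (final 2 nM) on Mcl-1 (final 20 nM) in PBS with 0.01% BGG and 0.01% Triton X-100, 5% final DMSO.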
(In fluorescence polarisation assays a small probe gives low polarisation when free and higher when bound to something large.)

The subject of series [2] is OPM-2 cells. The experiment in a line: Cell viability assay (OPM-2 cells), CCK-8. The series is classed as cell-based. Conditions: 5% FBS. The essentials: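 OPM-2 myeloma cells (20000/well) incubated with serially diluted compound for 24 h at 37 °C, 5% CO2. Viability read by CCK-8 (4 h) absorbance at 450 nm, normalised to vehicle; IC50 from nonlinear regression.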
Series [3] deals with NCI-H929 cells. As to the kind of experiment: Cell viability assay (NCI-H929 cells), CCK-8. The series is classed as cell-based. Conditions: 5% FBS. The method in brief:
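NCI-H929 cells (20000/well) exposed to serially diluted compounds for 24 h at 37 °C, 5% CO2. Viability by CCK-8, absorbance at 450 nm after 1-4 h, normalized to vehicle-treated cells. IC50 by nonlinear regression.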

Series [4] is described as follows: Microsome clearance assay, mouse. The series is classed as in vitro ADME. Particulars: 0.5 mg/ml protein, 1 mM NADPH, 60 minutes; for Mouse Liver Microsome Clint (μL/min/mg protein): mouse liver microsomes, 5 μM; for microsomal CLint at 5 μM: male, CD-1, mouse, pooled liver microsomes, pH 7.4, mouse liver microsomes, read-out: Mouse Liver Microsome Clint (μL/min/mg protein). The essentials:
(§1)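 Pooled liver microsomes (human, male Wistar rat, male CD-1 mouse) at 0.5 mg/ml protein in 0.1M sodium phosphate pH 7.4 with 5 μM test compound and 1 mM NADPH, incubated 60 minutes. Reactions quenched in ice-cold methanol; supernatant analysed by LC/MS/MS (electrospray).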
(Microsomes from liver hold many membrane-bound enzymes, among them those of drug oxidation.)

Series [5] is described as follows: Microsome clearance assay, rat. Type of series: in vitro ADME. Conditions: 0.5 mg/ml protein, 1 mM NADPH, 60 minutes; for Rat Liver Microsome Clint (μL/min/mg protein): rat liver microsomes, 5 μM; for microsomal CLint at 5 μM: male, Wister, rat, pooled liver microsomes, pH 7.4, rat liver microsomes, read-out: Rat Liver Microsome Clint (μL/min/mg protein). The method in brief: as §1

Series [6] can be described thus: Microsome clearance assay, human. Type of series: in vitro ADME. Conditions: 0.5 mg/ml protein, 1 mM NADPH, 60 minutes; for Human Liver Microsome Clint (μL/min/mg protein): human liver microsomes, 5 μM; for microsomal CLint at 5 μM: human, pooled liver microsomes, pH 7.4, human liver microsomes, read-out: Human Liver Microsome Clint (μL/min/mg protein). The essentials:
as §1

The test system of series [7] is MV-4-11 cells. As to the kind of experiment: MV-4-11 cell viability assay, CCK-8. The series is classed as cell-based. Particulars: for pIC50: read-out: MV-4-11 IC50 (5% FBS), MV-4-11 cells, 5% FBS, 24 hrs, CCK-8; for IC50: Homo sapiens, MV4-11, 24 h, read-out: MV-4-11 IC50 (5% FBS, nM), MV-4-11 cells, 5% FBS, 24 hrs, CCK-8. As for the experimental part:
MV-4-11 cells were obtained from American Type Culture Collection (ATCC). […]
The effect of representative Compounds of the Disclosure on cell viability was determined using Cell Counting Kit-8 (CCK-8) assay according to the manufacturer's instructions. 95 μL of MV-4-11 cell suspension (20000 cells/well) in culture medium were seeded into 96-well plates and cultured 4 hrs. Each tested compound was serially diluted in DMSO, then 5 μL of the compound or DMSO was diluted in 95 μL medium once more. At last, 5 μL of the compound dilution was added to the corresponding well of the cell plate. After the addition of the tested compound, the cells were incubated at 37° C. in an atmosphere of 5% CO2 for 24 hrs. At the end, 10 μL of CCK-8 solution was added to each well of the plate and incubated for 1-4 hrs. The plates were read at 450 nm on the microplate reader (BioTek Synergy 1MF). The readings were normalized to the vehicle cells, and the IC50 was calculated by nonlinear regression analysis using GraphPad Prism 6 software.

A short description of series [8]: Kinetic solubility assay in PBS buffer. The series is classed as physicochemical. Conditions: for solubility: PBS buffer, pH 6.5, aqueous buffer, thermodynamic from solid, read-out: Solubility (pH 6.5, μg/mL). How it is done:
Representative Compounds of the Disclosure were tested in a kinetic solubility assay in PBS buffer. PBS buffer was prepared by dissolving 4.86 g of potassium dihydrogen phosphate and 5.09 g of disodium hydrogen phosphate dodecahydrate in 1 L of ultrapure water (final pH 6.5). 0.5 mg of test sample was dissolved in 1 mL of methanol and the stock solution was transferred into 2 mL EP tube, and evaporated at 50° C. for 3 h. To the tube was added 1 mL of PBS buffer and the mixture was stirred and shaken for 1-2 h. The solution was allowed to stand overnight and then filtered before HPLC analysis. Another 1.5 mg of the sample was dissolved in 3 mL of methanol to prepare a calibration curve with a series of concentration range of 5-500 μM. The solubility of each sample was determined by the measured peak area in HPLC.

Chain of Mcl-1 protein (residues 171-323) (Q07820 171-323): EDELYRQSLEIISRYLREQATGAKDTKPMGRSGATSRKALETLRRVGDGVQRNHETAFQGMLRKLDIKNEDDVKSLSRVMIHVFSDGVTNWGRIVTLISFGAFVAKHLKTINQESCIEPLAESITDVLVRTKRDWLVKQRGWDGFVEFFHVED

With `Cc1c(C(=O)O)n2c3ccc(Cl)c(c13)-c1c(nn(C)c1C)CSCc1cc(n(C)n1)CSc1cc(c3ccc(F)cc3c1)OCCC2` (atropisomer, axis not shown) [Cpd. No. 15, (R)-(Z)-1^5-chloro-9^6-fluoro-1^3,2^1,2^5,6^1-tetramethyl-1^1H,2^1H,6^1E-10-oxa-4,8-dithia-1(4,1)-indola-2(4,3),6(3,5)-dipyrazola-9(3,1)-naphthalenacyclotridecaphane-1^2-carboxylic acid], the pIC50 was 8.70 in series [1], 7.28 in series [2] (24 hours), 7.72 in series [3] (24 hrs) and 8.27 in series [7]. Further, in series [4], the “Mouse Liver Microsome Clint (μL/min/mg protein)” value (“Mouse Liver Microsome Clint” below) is 28.0 μL/min/mg protein. Moreover, in series [5], the “Rat Liver Microsome Clint (μL/min/mg protein)” value (shortened to “Rat Liver Microsome Clint”) was 19.6 μL/min/mg protein. Besides, the “Human Liver Microsome Clint (μL/min/mg protein)” value (shortened to “Human Liver Microsome Clint”) in series [6] is <2.8 μL/min/mg protein.
For orientation: IC50 means the concentration that inhibits the measured activity by half. `Cc1c2c(nn1C)CSCc1cc(n(C)n1)CSc1cc(c3ccccc3c1)OCCCc1c(C(=O)O)n(C)c3c-2c(Cl)ccc13` [AZD5991, (Z)-16-chloro-11,21,25,61-tetramethyl-11H,21H,61H-10-oxa-4,8-dithia-1(7,3)-indola-2(4,3),6(3,5)-dipyrazola-9(3,1)-naphthalenacyclotridecaphane-12-carboxylic acid, reference compound]: the pIC50 in series [2] (Homo sapiens, OPM-2, 24 h) was 6.83; in series [3] (Homo sapiens, NCI-H929, 24 h), 7.33. The microsomal CLint at 5 μM is 20.8 µL/min/mg in series [4], 16.6 µL/min/mg in series [5] and < 2.8 µL/min/mg in series [6]. In series [7], the IC50 is 29 nM. Further, the solubility in series [8] was < 1 µg/mL.
For the molecule `Cc1c(C(=O)O)n2c3ccc(Cl)c(c13)-c1c(nn(C)c1C)CSCc1cc(n(C)n1)CSc1cc(c3ccccc3c1)OCCC2` [Cpd. No. 5, (Z)-1^5-chloro-1^3,2^1,2^5,6^1-tetramethyl-1^1H,2^1H,6^1H-10-oxa-4,8-dithia-1(4,1)-indola-2(4,3), 6(3,5)-dipyrazola-9(3,1)-naphthalenacyclotridecaphane-1^2-carboxylic acid], the figures for the pIC50 in series [1], in series [2] (24 hours) and in series [3] (24 hrs) were 7.77, 6.72 and 7.48, respectively. Besides, the “Mouse Liver Microsome Clint” value in series [4] stood at 48.4 μL/min/mg protein. Moreover, in series [5], the “Rat Liver Microsome Clint” value was determined as 58.8 μL/min/mg protein. In series [6], the “Human Liver Microsome Clint” value is 15.8 μL/min/mg protein. In series [7], the IC50 amounted to 43 nM. Further, the “Solubility (pH 6.5, μg/mL)” value in series [8] (PBS buffer pH 6.5) was determined as 2 μg/mL.
Turning to `Cc1c(C(=O)O)n2c3ccc(Cl)c(c13)-c1c(nn(C)c1C)CSCc1cc(n(C)n1)CSc1cc(c3ccc(F)cc3c1)OCCC2` [Cpd. No. 14, (Z)-1^5-chloro-9^6-fluoro-1^3,2^1,2^5,6^1-tetramethyl-1^1H,2^1H,6^1E-10-oxa-4,8-dithia-1(4,1)-indola-2(4,3),6(3,5)-dipyrazola-9(3,1)-naphthalenacyclotridecaphane-1^2-carboxylic acid], the pIC50 in series [1] is 7.72; in series [2] (24 hours) it was 7.28; in series [3] (24 hrs), 7.55; in series [7], 7.55. The “Mouse Liver Microsome Clint” value in series [4] came out at 28.6 μL/min/mg protein. In addition, the “Rat Liver Microsome Clint” value in series [5] was 27.2 μL/min/mg protein. For the same molecule, the “Human Liver Microsome Clint” value in series [6] came to 5.0 μL/min/mg protein. Moreover, the solubility in series [8] came out at 10 µg/mL (≈ 14.5 µM).
With `Cc1c(C(=O)O)n2c3ccc(Cl)c(c13)-c1c(nn(C)c1C(F)F)CSCc1cc(n(C)n1)CSc1cc(c3ccc(F)cc3c1)OCCC2` [Cpd. No. 18, (Z)-1^5-chloro-2^5-(difluoromethyl)-9^6-fluoro-1^3,2^1,6^1-trimethyl-1^1H,2^1H,6^1H-10-oxa-4,8-dithia-1(4,1)-indola-2(4,3),6(3,5)-dipyrazola-9(3,1)-naphthalenacyclotridecaphane-1^2-carboxylic acid], the pIC50 in series [1] is 7.82; in series [2] (Homo sapiens, OPM-2, 24 h) it was 6.72; in series [3] (Homo sapiens, NCI-H929, 24 h), 7.20. Besides, the microsomal CLint at 5 μM in series [4] amounted to 42 µL/min/mg; in series [5], 22.6 µL/min/mg; in series [6], 22.2 µL/min/mg. In series [7], the 50% inhibitory concentration (IC50) worked out at 93 nM. Further, the solubility in series [8] is < 1 µg/mL.

The values are drawn from patent publication US11691989B2, “Macrocyclic indoles as Mcl-1 inhibitors” (ASCENTAGE PHARMA (SUZHOU) CO., LTD., priority 2018, dated 2023).
